The results in this text go back to patent publication US12280063B2, “Anti-retroviral therapies and reverse transcriptase inhibitors for treatment of Alzheimer's disease” (Sanford Burnham Prebys Medical Discovery Institute, priority 2018, dated 2025).

In assay [1] the test system is reverse transcriptase activity in CHO cell lysate. Put plainly: In vitro reverse transcriptase activity assay in CHO cell lysate. It is filed as biochemical. Particulars: four independent experiments, FIG. 20E, read-out: IC50, decrease of reverse transcriptase activity. On the procedure: In one example, lysates were prepared in reverse transcriptase disruption buffer and contained Complete™, EDTA-free Protease Inhibitor Cocktail (Sigma-Aldrich, St. Louis, Mo.) and PhosSTOP™ phosphatase inhibitors (Sigma-Aldrich, St. Louis, Mo.). One microgram of extract was used in the reverse transcription step of the assay. Reverse transcription was carried out at 37° C. for 45 min, followed by 15 min at 70° C. The RT product of this first step was assayed in triplicate by quantitative PCR. Levels of reverse transcription activity were determined by the Delta Cq method, compared to the activity in negative controls (water and no nucleotides) that were given Cq scores of 40. 1×10^5 picounits of SuperScript™ II Reverse Transcriptase (ThermoFisher Scientific) were used as a positive control for the assay. Lysates for heat inactivation experiments were incubated for 15 min at 70° C. prior to the reverse transcription step. For inhibitor experiments, lysates were incubated with inhibitor in the presence of all the components of the reaction except for dNTPs. After 10 min at room temperature, dNTPs were added and the reaction was incubated at 37° C. as above. AZT-TP was purchased from TriLink Biotechnologies (San Diego, Calif.).
In another example, the in vitro reverse transcriptase activity assay was conducted with reagents and protocol as shown in Tables 8-11.

Assay [2] relates to APP gencDNAs in CHO cells. The assay is described as follows: Induction of APP gencDNAs in APP 751-transfected CHO cells treated with hydrogen peroxide, genomic DNA PCR. It is filed as cell-based. Particulars: AZT 100 μM and ABC 10 μM given together, APP 751 transfection, hydrogen peroxide 0, 5 or 50 μM, FIG. 20B. On the procedure:
The method is graphically represented in FIG. 20A. CHO cells were serum-deprived for 2 days, followed by addition of reverse transcriptase (RT) inhibitors azidothymidine (AZT, 100 μM) and abacavir (ABC, 10 μM) (Tocris, Minneapolis, Minn.) until the end of the experiment. Medium was changed daily with fresh RT inhibitors. Cells were transfected with APP 751 by GenJet (SignaGen Laboratories, Gaithersburg, Md.) on day 3, then on day 4 cells were treated with 0 μM, 5 μM, or 50 μM of hydrogen peroxide (Fisher Scientific) for 2 hrs. After 1 day, cells were collected and genomic DNA was extracted for PCR analysis.

Take azidothymidine triphosphate [AZT-TP]: the IC50 – broadly, the concentration needed to halve the response being measured – in assay [1] came out at 18.5 µM.
Regarding `Nc1nc(NC2CC2)c2ncn([C@H]3C=C[C@@H](CO)C3)c2n1` [abacavir], the “production of APP gencDNAs under nucleoside reverse transcriptase inhibitors” value in assay [2] is “also required to produce gencDNAs”.
